The values that follow come from patent publication US7361665B2, “Inhibitors of c-Jun N-terminal kinases (JNK) and other protein kinases” (Vertex Pharmaceuticals Incorporated, priority 2002, dated 2008).

A value given as a limit tells only on which side of the number the result lay.

For one assay, the target named is T1, JNK3 (Homo sapiens, UniProt P53779).
T1 construct: One such construct encodes amino acid residues Ser40-Glu402 of JNK3α1 and is preceded by Met and Gly residues; Met-Gly dipeptide (initiation Met plus Gly added for the NcoI site) (N); made in house; host or cells: E. coli BL21 (DE3)
Nature of the assay: JNK inhibition assay (spectrophotometric coupled-enzyme assay). The class given is biochemical. The conditions noted are these: activated JNK3 10 nM, 10 μM ATP, 30° C.; read-out: JNK3 Activity (Ki rating). An excerpt: A BLAST search of the EST database using the published JNK3α1 cDNA as a query identified an EST clone (#632588) that contained the entire coding sequence for human JNK3α1. Polymerase chain reactions (PCR) using pfu polymerase (Strategene) were used to introduce restriction sites into the cDNA for cloning into the pET-15B expression vector at the NcoI and BamHI sites. The protein was expressed in E. coli. Due to the poor solubility of the expressed full-length protein (Met 1-Gln 422), an N-terminally truncated protein starting at Ser residue at position 40 (Ser 40) was produced. This truncation corresponds to Ser 2 of JNK1 and JNK2 proteins, and is preceded by a methionine (initiation) and a glycine residue. The glycine residue was added in order to introduce an NcoI site for cloning into the expression vector. In addition, systematic C-terminal truncations were performed by PCR to identify a construct that give rise to diffraction-quality crystals. One such construct encodes amino acid residues Ser40-Glu402 of JNK3α1 and is preceded by Met and Gly residues.
Five mg of JNK3 was diluted to 0.5 mg/ml in 50 mM HEPES buffer, pH 7.5, containing 100 mM NaCl, 5 mM DTT, 20 mM MgCl2 and 1 mM ATP. GST-MKK7(DD) was added at a molar ratio of 1:2.5 GST-MKK7:JNK3. After incubation for 30 minutes at 25° C., the reaction mixture was concentrated 5-fold by ultrafiltration in a Centriprep-30 (Amicon, Beverly, Mass.), diluted to 10 ml and an additional 1 mM ATP added. This procedure was repeated three times to remove ADP and replenish ATP. The final addition of ATP was 5 mM and the mixture incubated overnight at 4° C.
The activated JNK3/GST-MKK7(DD) reaction mixture was exchanged into 50 mM HEPES buffer, pH 7.5, containing 5 mM DTT and 5% glycerol (w/v) by dialysis or ultrafiltration. The reaction mixture was adjusted to 1.1 M potassium phosphate, pH 7.5, and purified by hydrophobic interaction chromatography (at 25° C.) using a Rainin Hydropore column. […] Activated JNK3 (i.e. doubly phosphorylated JNK3) was stored at −70° C. at 0.25-1 mg/ml.
Compounds were assayed for the inhibition of JNK3 by a spectrophotometric coupled-enzyme assay. In this assay, a fixed concentration of activated JNK3 (10 nM) was incubated with various concentrations of a potential inhibitor dissolved in DMSO for 10 minutes at 30° C. in a buffer containing 0.1 M HEPES buffer, pH 7.5, containing 10 mM MgCl2, 2.5 mM phosphoenolpyruvate, 200 μM NADH, 150 μg/mL pyruvate kinase, 50 μg/mL lactate dehydrogenase, and 200 μM EGF receptor peptide. The EGF receptor peptide has the sequence […] (SEQ ID NO: 3), and is a phosphoryl acceptor in the JNK3-catalyzed kinase reaction. The reaction was initiated by the addition of 10 μM ATP and the assay plate is inserted into the spectrophotometer's assay plate compartment that was maintained at 30° C. The decrease of absorbance at 340 nm was monitored as a function of time. The rate data as a function of inhibitor concentration was fitted to competitive inhibition kinetic model to determine the Ki.
The compound numbers correspond to the compound numbers in Tables 1-3.

The next assay addresses human Lck kinase. The experiment in a line: Lck inhibition assay (radioactivity-based assay A or spectrophotometric assay B). It is filed as biochemical. The method, then: The compounds of this invention can be evaluated as inhibitors of human Lck kinase using either a radioactivity-based assay or spectrophotometric assay.
The compounds are assayed as inhibitors of full length bovine thymus Lck kinase (from Upstate Biotechnology, cat. no. 14-106) expressed and purified from baculo viral cells. Lck kinase activity is monitored by following the incorporation of ^33P from ATP into the tyrosine of a random poly Glu-Tyr polymer substrate of composition, Glu:Tyr=4:1 (Sigma, cat. no. P-0275). The following are the final concentrations of the assay components: 0.025 M HEPES, pH 7.6, 10 mM MgCl2, 2 mM DTT, 0.25 mg/ml BSA, 10 μM ATP (1-2 μCi ^33P-ATP per reaction), 5 mg/ml poly Glu-Tyr, and 1-2 units of recombinant human […] kinase. In a typical assay, all the reaction components with the exception of ATP are pre-mixed and aliquoted into assay plate wells. […] The plates are sealed and the amount of radioactivity associated with the filters is quantified on a TopCount scintillation counter. The radioactivity incorporated is plotted as a function of the inhibitor concentration. […]
In a typical assay, all the reaction components with the exception of ATP are pre-mixed and aliquoted into assay plate wells. […] The absorbance change at 340 nm with time, the rate of the reaction, is monitored on a molecular devices plate reader. […]

What is called Ki is a dissociation constant, usually derived from enzyme kinetics or from competition with a known ligand.

T1 sequence (P53779 40-402): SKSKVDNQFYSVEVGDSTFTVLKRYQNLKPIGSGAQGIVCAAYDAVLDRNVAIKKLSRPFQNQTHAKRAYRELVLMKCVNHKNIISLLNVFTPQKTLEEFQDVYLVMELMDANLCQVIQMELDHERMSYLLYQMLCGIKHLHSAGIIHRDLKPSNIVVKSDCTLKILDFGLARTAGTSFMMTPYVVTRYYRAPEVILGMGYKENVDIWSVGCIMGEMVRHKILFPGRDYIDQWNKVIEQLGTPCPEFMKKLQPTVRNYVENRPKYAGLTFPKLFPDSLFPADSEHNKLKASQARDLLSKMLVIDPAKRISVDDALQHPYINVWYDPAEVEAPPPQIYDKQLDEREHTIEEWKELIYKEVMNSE

For `Cc1nc(-c2cccs2)sc1-c1ccnc(Nc2ccc(S(N)(=O)=O)cc2)n1` [IIc-22], the Ki at JNK3 and on human Lck kinase was less than 100 nM in each case.
